Reference: BindingDB's records for doi:10.1016/s0960-894x(03)00020-9 (Seoul National University, 2003)

What follows are compounds tested against Methionine--tRNA ligase (Escherichia coli) (UniProt P00959) (assay: Inhibitory activity against Escherichia coli Methionyl-tRNA synthetase was determined).
Sequence of Methionine--tRNA ligase (Escherichia coli) (P00959 whole entry, looked up): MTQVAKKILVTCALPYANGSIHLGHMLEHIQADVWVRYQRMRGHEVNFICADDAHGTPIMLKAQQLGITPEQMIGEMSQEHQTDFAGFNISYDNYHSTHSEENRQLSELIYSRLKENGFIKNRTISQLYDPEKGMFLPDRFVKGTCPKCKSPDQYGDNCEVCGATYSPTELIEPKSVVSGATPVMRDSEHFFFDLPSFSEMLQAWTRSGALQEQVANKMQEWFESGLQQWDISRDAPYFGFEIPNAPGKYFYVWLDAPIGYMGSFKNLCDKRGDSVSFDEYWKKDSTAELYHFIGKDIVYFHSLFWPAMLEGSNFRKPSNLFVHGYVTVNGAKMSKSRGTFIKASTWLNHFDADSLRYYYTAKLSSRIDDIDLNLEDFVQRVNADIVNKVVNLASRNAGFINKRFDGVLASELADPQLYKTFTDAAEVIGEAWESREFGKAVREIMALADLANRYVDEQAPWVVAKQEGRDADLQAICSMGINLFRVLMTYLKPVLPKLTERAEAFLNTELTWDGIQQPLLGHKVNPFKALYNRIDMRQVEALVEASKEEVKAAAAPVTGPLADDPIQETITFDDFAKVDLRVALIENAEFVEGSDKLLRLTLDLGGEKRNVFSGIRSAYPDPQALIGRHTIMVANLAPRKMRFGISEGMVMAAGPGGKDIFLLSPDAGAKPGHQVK
For C#Cc1nc(N)c2ncn(C3O[C@H](COS(=O)(=O)NC(=O)[C@@H](N)CCSC)[C@@H](O)[C@H]3O)c2n1 (stereo partly specified), the IC50 was 1.1 µM.
With CCCCC#Cc1nc(N)c2ncn(C3O[C@H](COS(=O)(=O)NC(=O)[C@@H](N)CCSC)[C@@H](O)[C@H]3O)c2n1 (stereo partly specified) the IC50 was 1.9 µM.
CSCC[C@H](N)C(=O)NS(=O)(=O)N(O)C[C@H]1OC(n2cnc3c(N)ncnc32)[C@H](O)[C@@H]1O (stereo partly specified) was tested, and the IC50 was 106 µM.
With CSCC[C@H](N)C(=O)NS(=O)(=O)OC[C@H]1OC(n2cnc3c(N)nc(Cl)nc32)[C@H](O)[C@@H]1O (stereo partly specified) the IC50 was 7.4 µM.
For CSCC[C@H](N)C(=O)NS(=O)(=O)NOC[C@H]1OC(n2cnc3c(N)ncnc32)[C@H](O)[C@@H]1O (stereo partly specified), the IC50 was 19.7 µM.
For CSCC[C@H](N)C(=O)NS(=O)(=O)OC[C@H]1OC(n2cnc3c(N)nc(I)nc32)[C@H](O)[C@@H]1O (stereo partly specified), the IC50 was 1.2 µM.
CNc1nc(I)nc2c1ncn2C1O[C@H](COS(=O)(=O)NC(=O)[C@@H](N)CCSC)[C@@H](O)[C@H]1O (stereo partly specified) showed an IC50 of 191 µM.

Target: Methionine--tRNA ligase (Escherichia coli) (UniProt P00959)
Assay: as above
Remark: another data set of the same source
CSCC[C@H](N)C(=O)NS(=O)(=O)OC[C@H]1O[C@@H](n2cnc3c(N)ncnc32)[C@H](O)[C@@H]1O was tested, and the IC50 was 0.007 µM.

Each compound was assayed against Isoleucine--tRNA ligase (Escherichia coli) (UniProt P00956) (assay: Inhibitory activity against Escherichia coli Isoleucyl-tRNA synthetase was determined).
Sequence of Isoleucine--tRNA ligase (Escherichia coli) (P00956 whole entry, looked up): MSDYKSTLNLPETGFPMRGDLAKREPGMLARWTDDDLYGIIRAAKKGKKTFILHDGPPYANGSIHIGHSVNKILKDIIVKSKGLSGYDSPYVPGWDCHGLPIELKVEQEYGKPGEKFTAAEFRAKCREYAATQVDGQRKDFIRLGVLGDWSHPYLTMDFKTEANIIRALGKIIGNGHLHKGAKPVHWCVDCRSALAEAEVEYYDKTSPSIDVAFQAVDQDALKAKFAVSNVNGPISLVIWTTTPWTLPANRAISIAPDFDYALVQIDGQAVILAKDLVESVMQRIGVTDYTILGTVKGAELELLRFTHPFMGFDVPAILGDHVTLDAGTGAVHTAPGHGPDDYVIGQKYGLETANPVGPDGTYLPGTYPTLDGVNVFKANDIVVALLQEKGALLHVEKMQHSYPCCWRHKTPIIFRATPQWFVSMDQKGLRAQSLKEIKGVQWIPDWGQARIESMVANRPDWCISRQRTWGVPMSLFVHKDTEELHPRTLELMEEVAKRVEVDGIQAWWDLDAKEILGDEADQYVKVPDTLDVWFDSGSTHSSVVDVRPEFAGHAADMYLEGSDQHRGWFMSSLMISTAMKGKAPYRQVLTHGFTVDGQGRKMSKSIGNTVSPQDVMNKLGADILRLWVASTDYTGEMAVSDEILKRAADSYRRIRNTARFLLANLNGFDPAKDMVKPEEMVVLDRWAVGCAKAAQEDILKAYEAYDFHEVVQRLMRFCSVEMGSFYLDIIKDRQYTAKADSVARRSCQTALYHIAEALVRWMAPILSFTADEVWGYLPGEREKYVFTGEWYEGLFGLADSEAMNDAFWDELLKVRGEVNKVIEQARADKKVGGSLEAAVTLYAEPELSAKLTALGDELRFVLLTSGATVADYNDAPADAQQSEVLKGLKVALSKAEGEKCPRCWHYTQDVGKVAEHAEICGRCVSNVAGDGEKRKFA
With CC[C@H](C)[C@H](N)C(=O)NS(=O)(=O)OC[C@H]1OC(n2cnc3c(NC)nc(I)nc32)[C@H](O)[C@@H]1O (stereo partly specified) the IC50 was 22.2 µM.
C#Cc1nc(N)c2ncn(C3O[C@H](COS(=O)(=O)NC(=O)[C@@H](N)[C@@H](C)CC)[C@@H](O)[C@H]3O)c2n1 (stereo partly specified) gave an IC50 of 0.039 µM.
For CC[C@H](C)[C@H](N)C(=O)NS(=O)(=O)NOC[C@H]1OC(n2cnc3c(N)ncnc32)[C@H](O)[C@@H]1O (stereo partly specified), the IC50 was 12.8 µM.
In the case of CC[C@H](C)[C@H](N)C(=O)NS(=O)(=O)OC[C@H]1OC(n2cnc3c(N)nc(I)nc32)[C@H](O)[C@@H]1O (stereo partly specified), the IC50 is reported as 0.014 µM.
In the case of CC[C@H](C)[C@H](N)C(=O)NS(=O)(=O)OC[C@H]1OC(n2cnc3c(N)nc(Cl)nc32)[C@H](O)[C@@H]1O (stereo partly specified), the IC50 is reported as 5.5 µM.
For CC[C@H](C)[C@H](N)C(=O)NS(=O)(=O)N(O)C[C@H]1OC(n2cnc3c(N)ncnc32)[C@H](O)[C@@H]1O (stereo partly specified), the IC50 was 132 µM.
In the case of CCCCC#Cc1nc(N)c2ncn(C3O[C@H](COS(=O)(=O)NC(=O)[C@@H](N)[C@@H](C)CC)[C@@H](O)[C@H]3O)c2n1 (stereo partly specified), the IC50 is reported as 1.1 µM.

Target: Isoleucine--tRNA ligase (Escherichia coli) (UniProt P00956)
Assay: as above
Remark: another data set of the same source
Compound CC[C@H](C)[C@H](N)C(=O)NS(=O)(=O)OC[C@H]1O[C@@H](n2cnc3c(N)ncnc32)[C@H](O)[C@@H]1O has an IC50 of 0.098 µM.
